In patent US10463044B2, “Molecules that inhibit efflux pumps in multi-drug resistant bacteria and uses thereof” (priority 2014, dated 2019):
In brackets after ≈: the same amount, converted by molar mass. Read-outs that look alike come from different tables or passages of the source.

Columns and labels:
K-12 E. coli [1] = experiment: MIC, K-12 E. coli; type: cell-based, Escherichia coli; settings: compound alone
From the text: (§1) Minimal Inhibitory Concentration (MIC) Procedure. […] Streak the E. coli (DH5α or K-12 MG1655) strain on L.B agar plates. […] Prepare initial concentration of all the compounds required. • 5. […] Vortex each test tube for 2-3 seconds. • 9. […] Vortex each test tube for 2-3 seconds. • 11.

DH5α E. coli [2] = type: cell-based, Escherichia coli; settings: compound alone
From the text: (§2) Among the organisms studied are several strains of the bacterium E. coli.
as §1

[3] = system: tetracycline resistant E. coli (tetA efflux pump); type: cell-based, Escherichia coli
Experimental: However, the bacterial strains used herein are multidrug resistant and the effect of hydraphiles on the inhibition of resistance mechanism (efflux pumps) was not known. The hydraphiles and the controls were tested next to see whether they could recover the activity of antibiotics against efflux pump expressing Gram-positive and Gram-negative bacteria. The MIC of antibiotics were determined in the presence of ½ [MIC] or ¼ [MIC] of each hydraphile or the controls used.

K-12 E. coli [4] = experiment: Combination of amphiphile and antibiotic against K-12 E. coli; type: cell-based, Escherichia coli
Experimental: (§4) Steps 1-7, described in the MIC procedure, shown in Example 2, were followed. • 2. While the E. coli grew, the appropriate volume of compound was added to each test tube. • 3. Antibiotics were added at the required volume of solution to obtain the desired concentration in each test tube. […] Each test tube was vortexed for 2-3 seconds. • 5. Steps 10-12 from the MIC procedure, shown in Example 2, were then executed.

HEK-293 cells = experiment: Toxicity of lariat ethers to HEK-293 cells (MTT assay); type: cell-based
From the text: The error bars represent the standard error. […]

S. cerevisiae = experiment: Minimum inhibitory concentration (MIC), S. cerevisiae; type: cell-based, Saccharomyces cerevisiae; settings: compound alone
B. subtilis = experiment: Minimum inhibitory concentration (MIC), B. subtilis; type: cell-based, Bacillus subtilis; settings: compound alone
Experimental: Among the organisms studied are several strains of the bacterium E. coli. […] Experiments were conducted to determine the MIC values for the synthetic amphiphiles known as lariat ethers according to the procedures described in Antimicrobial M07-A9: Methods for Dilution Antimicrobial Susceptibility Tests for Bacteria that Grow Aerobically; Clinical and Laboratory Standards Institute, 2012; Vol. 32, 67 pp. MIC values so determined for several lariat ethers and for several antibiotics are shown in Table 1.

E. coli = experiment: Minimum inhibitory concentration (MIC), E. coli; type: cell-based, Escherichia coli; settings: compound alone
From the text: as §2, §1

DH5α E. coli [5] = experiment: Combination of lariat ether and antibiotic against DH5α E. coli; type: cell-based, Escherichia coli;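 also: E. coli grown in test-tube liquid culture at a fixed total volume of 2 mL, with the amphiphile and the antibiotic both added to each tube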
Experimental: The volume of water added was between 12 to 0.5 μL. The volume of water added was not constant but the volume of media was changed so that the total volume was kept constant at 2 mL.
as §4

[6] = system: tetracycline resistant E. coli (tetA efflux pump); experiment: microbe, parasite or virus in culture; type: cell-based, Escherichia coli; settings: compound alone; tetracycline resistant E. coli
From the text: as §2
Minimal Inhibitory Concentration (MIC) Procedure. […] Streak the E. coli (DH5α or K-12 MG1655) strain on L.B agar plates. […] Prepare initial concentration of all the compounds required. • 5. […] Vortex each test tube for 2-3 seconds. • 9. […] Vortex each test tube for 2-3 seconds. • 11. […]
(§3) The minimal inhibitory concentrations (MIC) of all the compounds against three bacterial strains were first determined using the microtiter technique as described above. […] Antimicrobial property of hydraphiles is attributed to the disruption of ion homeostasis in bacteria.

S. aureus 1199B = experiment: MIC, S. aureus 1199B; type: cell-based, Staphylococcus aureus
From the text: K. pneumoniae (ATCC BAA 2146; another Gram-negative bacterium) that expresses multiple classes of efflux pumps and NDM-1 gene was also used. This K. pneumoniae is a clinically relevant strain that was isolated from a patient. Gram-positive S. aureus 1199B was used that overexpresses the NorA efflux pump. Since ethidium bromide and norfloxacin are the substrates of efflux pumps, S. aureus 1199B was used to evaluate the activity of efflux pumps in the presence of the hydraphiles and other membrane disruptors.
as §3

[7] = Tetracycline, amphiphile used 16 μM

CO[C@H]1/C=C/O[C@@]2(C)Oc3c(C)c(O)c4c(O)c(c(/C=N/N5CCN(C)CC5)c(O)c4c3C2=O)NC(=O)/C(C)=C\C=C\[C@H](C)[C@H](O)[C@@H](C)[C@@H](O)[C@@H](C)[C@H](OC(C)=O)[C@@H]1C [rifampicin, reference compound]
MIC (K-12 E. coli [1]; Escherichia coli): 20 µM (≈ 16.5 µg/mL)
MIC (DH5α E. coli [2]): 60 µM (≈ 49.4 µg/mL)

c1ccc(CN2CCOCCOCCN(Cc3ccccc3)CCOCCOCC2)cc1 [Dibenzyl diaza crown, N,N′-Dibenzyl-4,13-diaza-18-crown-6, reference compound]
Fold Enhancement ([3]; amphiphile/control 128 μM): 1-fold
[Tetracycline] μM in combination ([3]; amphiphile/control 128 μM): 900 µM
Fold Enhancement ([3]; amphiphile/control 128 μM, listed as Dibenzyl di-aza-crown): did not show any recovery

N,N′-di-n-octyl-4,13-diaza-18-crown-6 [C8 lariat ether]
Antibiotic Used (μM) in combination ([3]; amphiphile used 40 μM): 233 µM
Fold Enhancement ([3]; amphiphile used 40 μM): 4 fold
Antibiotic Used (μM) in combination ([3]; amphiphile used 60 μM): 175 µM
Fold Enhancement ([3]; amphiphile used 60 μM): 5 fold
Antibiotic Used (μM) in combination ([3]; amphiphile used 80 μM): 87 µM
Fold Enhancement ([3]; amphiphile used 80 μM): 10 fold
Antibiotic Used (μM) in combination (K-12 E. coli [4]; Rifampicin, amphiphile used 32 μM): 10 µM
Antibiotic Used (μM) in combination (K-12 E. coli [4]; Rifampicin, amphiphile used […] μM): 5 µM
Antibiotic Used (μM) in combination (K-12 E. coli [4]; Tetracycline, amphiphile used […] μM): 2.5 µM
LD50 to HEK-293 (HEK-293 cells): 33 µM
MIC (μM) S. cerevisiae (S. cerevisiae): 25 µM
MIC (K-12 E. coli [1]): 300 µM
MIC (μM) B. subtilis (B. subtilis): 105 µM
MIC (μM) E. coli (E. coli): 120 µM
MIC (DH5α E. coli [2]): > 240 µM
MIC (DH5α E. coli [2]; listed as C8 Lariat): 120 µM
MIC (DH5α E. coli [2]; listed as n-C8): >120 µM
Antibiotic Used (μM) in combination (DH5α E. coli [5]; rifampicin, amphiphile used 40 μM, 0.4 vol-% DMSO): 3 ± 1 µM
Antibiotic Used (μM) in combination (DH5α E. coli [5]; rifampicin, amphiphile used 60 μM, 0.4 vol-% DMSO): 3 ± 1 µM
Antibiotic Used (μM) in combination (DH5α E. coli [5]; rifampicin, amphiphile used 80 μM, 0.4 vol-% DMSO): 3 ± 1 µM
Antibiotic Used (μM) in combination (DH5α E. coli [5]; tetracycline, amphiphile used 20 μM, 0.4 vol-% DMSO): 12 µM
Antibiotic Used (μM) in combination (DH5α E. coli [5]; tetracycline, amphiphile used 30 μM, ≤0.6 vol-% DMSO): 3 µM
Antibiotic Used (μM) in combination (DH5α E. coli [5]; tetracycline, amphiphile used 40 μM, 0.4 vol-% DMSO): 2 µM
Antibiotic Used (μM) in combination (DH5α E. coli [5]; tetracycline, amphiphile used 60 μM, 0.4 vol-% DMSO): 2 µM
Antibiotic Used (μM) in combination (DH5α E. coli [5]; tetracycline, amphiphile used 80 μM, 0.4 vol-% DMSO): 0.5 µM
Antibiotic Used (μM) in combination (DH5α E. coli [5]; tetracycline, amphiphile used 100 μM, 0.4 vol-% DMSO): 0.25 µM
MIC [6]: 120 µM

N,N′-di-n-decyl-4,13-diaza-18-crown-6 [C10 lariat ether]
Antibiotic Used (μM) in combination ([3]; amphiphile used 6 μM): 225 µM
Fold Enhancement ([3]; amphiphile used 6 μM): 4 fold
Antibiotic Used (μM) in combination ([3]; amphiphile used 9 μM): 56 µM
Fold Enhancement ([3]; amphiphile used 9 μM): 16 fold
Antibiotic Used (μM) in combination (K-12 E. coli [4]; Rifampicin, amphiphile used 6 μM): 5 µM
toxicity to HEK-293 compared among lariat ethers (HEK-293 cells): highest toxicity
MIC (μM) S. cerevisiae (S. cerevisiae): 2.8 µM
MIC (K-12 E. coli [1]): 12 µM
MIC (μM) B. subtilis (B. subtilis): 2.8 µM
MIC (μM) E. coli (E. coli): 11 µM
MIC (DH5α E. coli [2]): 12 µM
MIC [6]: 16 µM

Gramicidin D [reference compound]
[Tetracycline] μM in combination ([3]; amphiphile/control 20 μM): 900 ± 100 µM

N,N′-di-n-dodecyl-4,13-diaza-18-crown-6 [C12 lariat ether]
Antibiotic Used (μM) in combination ([3]; amphiphile used 192 μM): 450 µM
Fold Enhancement ([3]; amphiphile used 192 μM): 2 fold
Antibiotic Used (μM) in combination (K-12 E. coli [4]; [7]): 3 µM
Fold Enhancement (K-12 E. coli [4]; [7]): 2 fold
MIC (μM) S. cerevisiae (S. cerevisiae): 2.5 µM
MIC (K-12 E. coli [1]): >512 µM
MIC (μM) B. subtilis (B. subtilis): 2.5 µM
MIC (μM) E. coli (E. coli): >300 µM

CCn1cc(C(=O)O)c(=O)c2cc(F)c(N3CCNCC3)cc21 [norfloxacin]
susceptibility of S. aureus 1199B (S. aureus 1199B): resistant

N,N′-di-n-tetradecyl-4,13-diaza-18-crown-6 [C14 lariat ether]
MIC (μM) S. cerevisiae (S. cerevisiae): >300 µM
MIC (μM) B. subtilis (B. subtilis): >300 µM
MIC (μM) E. coli (E. coli): >300 µM
